Structures are written as SMILES.

Data set [1] relates to coq null mutants (Q-less yeast). As to conditions: for protection in the yeast model: compared with D4-linolenic acid. The procedure: FIG. 3. […] Yeast coq3, coq7 and coq9 null mutants were prepared in the W303 yeast genetic background (WT). Yeast strains were grown in YPD medium (1% Bacto-yeast extract, 2% Bacto-peptone, 2% dextrose) and harvested while in log phase growth (OD600nm=0.1-1.0). Cells were washed twice with sterile water and resuspended in phosphate buffer (0.10 M sodium phosphate, pH 6.2, 0.2% dextrose) to an OD600nm=0.2. Samples were removed and 1:5 serial dilutions starting at 0.20 OD/ml were plated on YPD plate medium, to provide a zero time untreated control (shown in top left panel). The designated fatty acids were added to 200 uM final concentration to 20 ml of yeast in phosphate buffer. At 2 h, 4 h, and 16 h samples were removed, 1:5 serial dilutions prepared, and spotted onto YPD plate medium. Pictures were taken after 2 days of growth at 30° C.
FIG. 4. […] The fatty acid sensitive assay was performed as described in FIG. 6-1, except that 100 ul aliquots were removed at 1, 2, and 4 h and, following dilution, spread onto YPD plates. Pictures were taken after 2 to 2.5 days, and the number of colonies counted. Yeast strains include Wild type (circles), atp2 (triangles), or coq3 (squares); Fatty acid treatments include oleic C18:1 (solid line), linolenic, C18:3, n-3 (dashed line) or 11,11,14,14-D4-linolenic, C18:3, n-3, (dotted line).
Q-less yeast (coq mutants) provide an ideal system to assess in vivo autoxidation of fatty acids. Coenzyme Q (ubiquinone or Q) serves as a small lipophilic antioxidant as well as an electron shuttle in the respiratory chain of the mitochondrial inner membrane. Ten S. cerevisiae genes (COQ1-COQ10) are required for coenzyme Q biosynthesis and function, and the deletion of any results in respiratory deficiency (Tran U C, Clarke C F. Mitochondrion 2007; 75,S62).
A plate dilution assay can be used to assess PUFA sensitivity. This assay can be performed by spotting serial five-fold dilutions of aliquots onto YPD plate media (FIG. 3). The sensitivity of the different strains can be observed by visual inspection of the density of cells in each spot.

Data set [2] has as its system WT (W303) yeast. Particulars: 200 μM, 4 h incubation.
Method: Uptake of exogenously supplied fatty acids by yeast. WT (W303) yeast were harvested at log phase and incubated in the presence of 200 μM of the designated fatty acid for either 0 or 4 h.
Chromatograms of the yeast extracts subjected to GC-MS analyses. The different traces represent the 0 and 4 h incubations, respectively. The peak area of Each FAME (C18:1, C18:3 and D4-linolenic) was divided by the peak area of the C17:0 standard, quantified with a calibration curve.
Wild-type yeast were harvested during log phase growth and incubated in the presence of exogenously added fatty acid (for 0 or 4 h) in the presence of phosphate buffer plus 0.20% dextrose, as described for the fatty acid sensitivity assay. Cells were harvested, washed twice with 10 ml sterile water, and the yeast cell pellets were then processed by alkaline methanolysis as described above. The fatty acids are detected as methylesters (FAMEs) following GC-MS with C17:0 added as an internal standard (FIG. 6). The amounts of 18:3 and D4 detected after 4 h incubation were extrapolated from the calibration curve.
The conditions of data set [3]: mouse, in vivo; cited from earlier work.
The subject of data set [4] is coq null mutants (Q-less yeast). Particulars: cited from earlier work; for sensitivity of Q-less yeast to fatty acid treatment: compared with wild-type parental strain.
Data set [5] deals with wild-type (strain W303-1B) cells. As to conditions: four hour treatment; cited from earlier work.

Regarding `[2H]C([2H])(/C=C\C/C=C\CC)C/C=C\CCCCCCC(=O)O` [11, 11-D2-linolenic acid, 11,11-Dideutero-cis,cis,cis-octadeca-8,12,15-trienoic acid], in data set [1], the “protection in the yeast model” value is on record as “comparable protection”.
Same read-out and setting: under `[2H]C([2H])(/C=C\CC)/C=C\CC/C=C\CCCCCCC(=O)O` [14, 14-D2-linolenic acid, 14,14-Dideutero-cis,cis,cis-octadeca-8,12,15-trienoic acid] stands “comparable protection”.
Regarding `[2H]C([2H])(/C=C\CC)/C=C\C([2H])([2H])/C=C\CCCCCCCC(=O)O` [D4-linolenic acid, 11,11,14,14-Tetradeutero-cis,cis,cis-9,12,15-Octadecatrienoic acid], the “viability of cells compared with oleic acid treatment” value in data set [1] (quantitative colony counting) is listed as “similar”. Moreover, the “incorporation of exogenously added fatty acid by yeast” value in data set [2] is “avidly incorporate”.
With `CCCCC/C=C\C/C=C\CCCCCCCC(=O)O` [LA, (9Z,12Z)-9,12-Octadecadienoic acid], the “time at which higher-order PUFA concentration peaks in brain” value in data set [3] was ≤ 8 h.
On to `CCCCC/C=C\C/C=C\C/C=C\C/C=C\CCCC(=O)O` [arachidonic acid], for which, in data set [4], the “sensitivity of Q-less yeast to fatty acid treatment” value is “hypersensitive”.
`CC/C=C\C/C=C\C/C=C\CCCCCCCC(=O)O` [linolenic acid, (9Z,12Z,15Z)-9,12,15-Octadecatrienoic acid]: the “viability / cell killing of coq mutants” value in data set [1] (200 uM fatty acid, plate dilution assay) is listed as “dramatic loss of viability”. Further, in data set [1] (quantitative colony counting, treatment for 4 h), the “reduction of viability of the coq mutants” value is listed as “more than 100 fold”. For the same compound, the “time at which higher-order PUFA concentration peaks in brain” value in data set [3] was ≤ 8 h. The “wild-type cells remaining viable” value in data set [5] is on record as 70%. Further, in data set [2], the “incorporation of exogenously added fatty acid by yeast” value is on record as “avidly incorporate”. Further, the “viable Q-less (coq2, coq3, and coq5) yeast mutants” value in data set [4] (following a four hour treatment) is given as “Less than 1%”.
With `CCCCCCCC/C=C\CCCCCCCC(=O)O` [oleic acid], the “sensitivity of Q-less yeast to fatty acid treatment” value in data set [4] is “behave the same as the wild-type parental strain”.
